From PubChem BioAssay (NCI)
Values joined by “and” are separate entries in the source; they are usually repeats but may differ in a detail not shown here. Equal entries are not always repeated.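 Cultured in 96-well plates, cells were exposed to test compound for 48 hours across five concentrations. GI50 is the concentration that inhibits growth by half. TGI denotes the concentration required for complete inhibition of growth.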

Columns and labels:
Experiment in all cases: DTP human tumour cell line panel, 48 h
BT-549 breast = system: BT-549 breast
HCT-116 colon = system: HCT-116 colon
HL-60(TB) leukemia = system: HL-60(TB) leukemia
HT29 colon = system: HT29 colon
IGROV1 ovarian = system: IGROV1 ovarian
MDA-MB-231 breast = system: MDA-MB-231 breast
NCI-H460 lung = system: NCI-H460 lung
NCI/ADR-RES ovarian = system: NCI/ADR-RES ovarian
RXF 393 renal = system: RXF 393 renal
SK-OV-3 ovarian = system: SK-OV-3 ovarian
UACC-257 melanoma = system: UACC-257 melanoma
M19-MEL melanoma = system: M19-MEL melanoma

SMILES	TGI (BT-549 breast)	TGI (HCT-116 colon)	TGI (HL-60(TB) leukemia)	TGI (HT29 colon)	TGI (IGROV1 ovarian)	TGI (MDA-MB-231 breast)	TGI (NCI-H460 lung)	TGI (NCI/ADR-RES ovarian)	TGI (RXF 393 renal)	TGI (SK-OV-3 ovarian)	TGI (UACC-257 melanoma)	GI50 (NCI/ADR-RES ovarian)	GI50 (RXF 393 renal)	TGI (M19-MEL melanoma)
Brc1ccc2[nH]cc(-c3nc(-c4c[nH]c5ccccc45)cs3)c2c1	23.4 µM	7.15 µM	16.1 µM	3.56 µM	8.75 µM	7.68 µM	4.9 µM	11.2 µM	16 µM	21.4 µM	15.4 µM	–	–	–
O=C1CCCCc2cccc(O)c21	> 100 µM	> 100 µM	> 100 µM	> 100 µM	> 100 µM	> 100 µM	> 100 µM	> 100 µM	> 100 µM	> 100 µM	> 100 µM	–	–	–
CNC(=S)N/N=C/c1cccc(C)n1	86.3 µM	> 100 µM	> 75.9 µM	> 100 µM	> 100 µM	> 89 µM	60.9 µM	63.3 µM	97.4 µM	> 100 µM	> 100 µM	–	–	–
C#C[C@]1(O)CC[C@H]2[C@@H]3CCc4cc(OC(=O)c5cccc6cc7ccccc7nc56)ccc4[C@H]3CC[C@@]21C	> 100 µM	80.1 µM	> 100 µM	> 100 µM	> 100 µM	71.9 µM	> 100 µM	> 100 µM	> 100 µM	> 100 µM	> 100 µM	–	–	–
Cc1cc2c(c(C=NCc3ccccc3)c1)OC1(C=C2)Oc2ccccc2C(=O)N1C (stereo unspecified)	62.5 µM	61.6 µM	60.2 µM	51.7 µM	68.1 µM	78.1 µM	55.4 µM	48 µM	55.9 µM	> 100 µM	67 µM	–	–	–
CCOc1ccc(NCc2cc(OC)c(OC)c(OC)c2)cc1	> 100 µM	48.2 µM and 46 µM	19.2 µM and 33.8 µM	8.98 µM and 11.8 µM	> 84 µM	> 100 µM	> 100 µM and 58 µM	> 100 µM	–	22.8 µM and 24.8 µM	> 100 µM	0.569 µM	2.24 µM	–
CN=S(=O)(c1ccccc1)c1ccccc1	–	> 100 µM	> 100 µM	> 100 µM	> 100 µM	–	> 100 µM	–	> 100 µM	> 100 µM	> 100 µM	–	–	> 100 µM
C=CC[C@H](C)CCC(=O)N1[C@H]2CC3CC[C@@]2(CS1(=O)=O)C3(C)C	> 100 µM	> 100 µM	57.3 µM	49 µM	> 100 µM	> 100 µM	> 100 µM	> 100 µM	> 100 µM	> 100 µM	> 100 µM	–	–	–
CC(C)C1CC(O)O[C@@H]([C@@H](C)[C@H]2CC(=O)[C@@H]3[C@@H]4[C@@H](O)[C@H](O)[C@H]5[C@@H](O)[C@H](O)CC[C@]5(C)[C@H]4CC[C@]23C)C1 (stereo partly specified)	–	> 100 µM	> 100 µM	> 100 µM	> 100 µM	–	> 100 µM	–	28.9 µM	> 100 µM	> 100 µM	–	–	> 100 µM
